{"source": "patent US20110135574A1", "about": "“METHODS OF TREATING KIDNEY DISEASE” (priority 2009, published 2011)", "key": {"podocytes": {"system": "podocytes", "assay": "Stress fiber quantification in podocytes, TRPC/Rho GTPase coupling (FIG. 4E)", "assay_type": "cell-based", "procedure": "Lentivirus construction and shRNA-mediated gene silencing. Podocytes were exposed to lentivirus encoding validated shRNA sequences (Open Biosystems) for 24 hours in cell culture medium supplemented with 4 μg/ml polybrene (Chemicon International). For all experiments, parallel infections with the enhanced GFP virus in the VVPW vector, scrambled shRNA, or polybrene alone were used as control. All experiments were performed at least 48 hours post-infection of podocytes that were thermoshifted 5-7 days prior to the assay. Lentiviral particles pseudotyped with the vesicular stomatitis virus glycoprotein (VSV-G) were constructed according to the manufacturer's protocol. Briefly, low-passage HEK293T cells were transfected with the pLKO.1 plasmid encoding the shRNA, the packaging plasmid pMDG.2 ΔR8.91, and the envelope plasmid pCMV-VSV-G at a ratio of 10:10:1 using the Minis Trans-IT LT-1 transfection reagent. Enhanced GFP encoded in the pLVX vector was used to assess transfection efficiency. The medium was replaced with the virus harvest media 18 hours post-transfection, and viral particles were collected twice at 24 hour intervals thereafter. […]\n(§1) Immunocytochemistry, wound healing assays, and confocal imaging. […] For double immunostaining, podocytes were incubated with antibodies to Paxillin (Chemicon International) and detected with Alexa-488-conjugated secondary antibodies (Molecular Probes). […]"}, "[1]": {"molecular_target": "T1, TRPC5 and TRPC6 channels in AT1R podocytes (Rattus norvegicus, UniProt Q8VD38)", "T1 construct": "endogenous in cells; host or cells: immortalized rat podocytes stably expressing the AngII Type 1 Receptor (AT1R podocytes)", "T1 sequence (Q8VD38 1-974)": "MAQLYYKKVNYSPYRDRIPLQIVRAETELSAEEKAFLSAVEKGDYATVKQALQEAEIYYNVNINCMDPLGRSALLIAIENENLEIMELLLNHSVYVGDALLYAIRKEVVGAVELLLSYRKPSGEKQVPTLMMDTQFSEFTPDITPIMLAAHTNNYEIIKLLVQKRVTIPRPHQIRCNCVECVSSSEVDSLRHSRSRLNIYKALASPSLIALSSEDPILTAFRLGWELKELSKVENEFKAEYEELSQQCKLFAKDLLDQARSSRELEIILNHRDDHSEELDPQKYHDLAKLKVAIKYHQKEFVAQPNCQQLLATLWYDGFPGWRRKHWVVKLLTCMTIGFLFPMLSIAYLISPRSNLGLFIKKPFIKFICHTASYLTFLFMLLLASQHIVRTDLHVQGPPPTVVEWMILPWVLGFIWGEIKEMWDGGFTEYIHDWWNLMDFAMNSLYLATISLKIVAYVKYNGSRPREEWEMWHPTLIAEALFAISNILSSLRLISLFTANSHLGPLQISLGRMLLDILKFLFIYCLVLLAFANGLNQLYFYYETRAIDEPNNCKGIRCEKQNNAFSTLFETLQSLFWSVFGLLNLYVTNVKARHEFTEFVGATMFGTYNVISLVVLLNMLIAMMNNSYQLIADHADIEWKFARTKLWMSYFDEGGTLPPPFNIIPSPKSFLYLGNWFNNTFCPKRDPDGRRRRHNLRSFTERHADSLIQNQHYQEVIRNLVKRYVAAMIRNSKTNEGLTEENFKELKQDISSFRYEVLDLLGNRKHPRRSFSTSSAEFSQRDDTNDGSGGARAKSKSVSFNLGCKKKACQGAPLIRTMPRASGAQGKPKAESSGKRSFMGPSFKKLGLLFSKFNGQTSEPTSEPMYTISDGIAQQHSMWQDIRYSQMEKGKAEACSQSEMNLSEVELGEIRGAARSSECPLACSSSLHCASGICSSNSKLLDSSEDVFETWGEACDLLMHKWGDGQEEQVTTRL", "assay": "Outside-out single channel recordings of TRPC5-like and TRPC6-like conductances", "assay_type": "cell-based", "conditions": "La3+ 100 μM; after AngII 500 nM; Vstep +100 mV", "procedure": "(§2) Electrophysiology. Patch-clamp electrophysiology (Axopatch 200B amplifier, Axon Instruments, CA) was performed in the whole-cell configuration. Briefly, fully differentiated podocytes were plated on glass coverslips at low density and placed in the recording chamber. The patch pipettes with resistances of 3-4 MΩ were pulled from borosilicate glass with a P-97 puller (Sutter Instrument) and filled with a solution containing (in mM): 135 CH3SO3Cs, 10 CsCl, 3 MgATP, 0.2 NaGTP, 0.2 EGTA, 0.13 CaCl2, and 10 HEPES, pH 7.3 with CsOH. The bath solution contained (in mM): 135 CH3SO3Na, 5 CsCl, 2 CaCl2, 1 MgCl2, 10 HEPES, and 10 Glucose, pH 7.4 with NaOH. Angiotensin (500 nM) was applied to the bath solution. Whole-cell currents were recorded from −100 mV to 100 mV voltage ramps over 150 ms and a holding potential of zero. For single channel recordings in the outside-out configuration, we utilized a voltage step protocol from −100 mV to +100 mV delivered at 20 mV intervals and a holding potential of −60 mV. Average pipette resistance filled with pipette solution was 5-10 MΩ. Data were sampled at 10 kHz and filtered at 5 kHz. […] Ensemble averages were expressed as open channel probabilities (average current divided by unitary current amplitude and # of channels in each patch) and plotted as histograms. All data were acquired at room temperature and analyzed using pClamp 10 (Axon Instruments, CA)."}, "[2]": {"molecular_target": "T2, TRPC5 and TRPC6 channels in AT1R podocytes (Rattus norvegicus, UniProt Q99N78)", "T2 construct": "endogenous in cells; host or cells: immortalized rat podocytes stably expressing the AngII Type 1 Receptor (AT1R podocytes)", "T2 sequence (Q99N78 1-930)": "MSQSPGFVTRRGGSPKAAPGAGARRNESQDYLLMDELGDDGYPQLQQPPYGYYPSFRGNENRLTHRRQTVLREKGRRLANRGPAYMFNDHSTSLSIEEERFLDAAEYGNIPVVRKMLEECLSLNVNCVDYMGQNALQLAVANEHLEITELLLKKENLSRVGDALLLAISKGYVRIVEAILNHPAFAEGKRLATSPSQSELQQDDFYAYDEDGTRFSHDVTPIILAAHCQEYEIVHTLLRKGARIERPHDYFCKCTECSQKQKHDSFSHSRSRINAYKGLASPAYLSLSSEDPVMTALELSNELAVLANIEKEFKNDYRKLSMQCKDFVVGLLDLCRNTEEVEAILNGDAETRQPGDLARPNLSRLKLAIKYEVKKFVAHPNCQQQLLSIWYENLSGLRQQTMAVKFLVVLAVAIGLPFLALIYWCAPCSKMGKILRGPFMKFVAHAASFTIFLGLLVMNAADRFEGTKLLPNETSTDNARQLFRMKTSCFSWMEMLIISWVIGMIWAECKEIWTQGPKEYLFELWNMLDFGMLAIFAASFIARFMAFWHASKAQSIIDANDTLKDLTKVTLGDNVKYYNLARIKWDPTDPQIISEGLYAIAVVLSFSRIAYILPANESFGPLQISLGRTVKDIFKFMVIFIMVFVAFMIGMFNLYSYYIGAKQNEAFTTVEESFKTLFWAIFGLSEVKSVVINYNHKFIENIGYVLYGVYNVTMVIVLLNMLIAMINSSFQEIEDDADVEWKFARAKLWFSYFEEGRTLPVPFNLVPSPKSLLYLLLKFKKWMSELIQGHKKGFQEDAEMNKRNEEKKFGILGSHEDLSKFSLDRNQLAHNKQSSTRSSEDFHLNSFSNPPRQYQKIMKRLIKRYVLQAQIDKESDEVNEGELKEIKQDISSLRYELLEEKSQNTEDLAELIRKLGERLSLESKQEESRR", "assay": "Outside-out single channel recordings of TRPC5-like and TRPC6-like conductances", "assay_type": "cell-based", "conditions": "La3+ 100 μM; in words", "procedure": "as §2"}, "AT1R podocytes [3]": {"system": "AT1R podocytes", "assay": "Whole-cell patch-clamp recording of AngII-evoked TRPC-like current", "assay_type": "cell-based, rat", "conditions": "AngII 500 nM", "procedure": "as §2"}, "AT1R podocytes [4]": {"system": "AT1R podocytes", "assay": "Fluo-3 calcium imaging of AngII-evoked Ca2+ transients", "assay_type": "cell-based, rat", "conditions": "Losartan 200 nM; AngII 500 nM", "procedure": "(§3) Podocyte cell culture. Wild-type mouse podocytes (passages 7 to 18) derived from the Immortomouse stably expressing the temperature-sensitive SV40 T-antigen were generously provided by Peter Mundel (University of Miami School of Medicine, FL) and cultured as previously described (Asanuma et al., Nat Cell Biol 8, 485-491, 2006). Briefly, podocytes were plated on collagen-coated cell culture dishes (100 μg/ml Type I Collagen, Gibco Invitrogen) and maintained at 33° C. in a humidified atmosphere of 5% CO2 in RPMI1640 medium supplemented with 10% heat-inactivated FBS, 100 U/ml Penicillin, 100 μg/ml streptomycin, and 100 U/ml Interferon-γ (IFN-γ). Under these permissive culture conditions, the podocytes remain in the undifferentiated, replication-competent state. Podocytes were thermoshifted to 38° C. and maintained in IFN-γ-free culture medium to induce growth arrest and differentiation. Podocyte-specific markers for differentiation are expressed within 7 days of culture in these non-permissive conditions. […]\nCalcium imaging. […] Fluorescence intensity was normalized to maximal fluorescence obtained at the end of each experiment by the application of 100 μM Ionomycin, based on the formula F=(Fmax (angiotensin)−Fmin)/(Fmax (ionomycin)−Fmin). Measurements were analyzed using Zeiss Pascal Software and Microsoft Xcel, and images were prepared in Adobe Photoshop and NIH Image J."}, "AT1R podocytes [5]": {"system": "AT1R podocytes", "assay": "Stress fiber (phalloidin) and focal adhesion (paxillin) quantification after AngII, AT1R podocytes", "assay_type": "cell-based, rat", "conditions": "in words", "procedure": "as §3, §1"}}, "note": "“Also recorded” adds a separate entry of the source."}
{"molecule": "C[C@@H](N)[C@H]1CC[C@H](C(=O)Nc2ccncc2)CC1", "note": "[Y27632]", "values": [{"measurement": "stress fibers", "setting": "podocytes; Y27632 10 μM in TRPC5 depleted cells (22±3 without)", "result": "6±1"}]}
{"molecule": "[La+3]", "note": "[La^3+, Lanthanum]", "values": [{"measurement": "single channel conductance [4] unmasked", "setting": "[1]", "result": 33, "unit": "pS"}, {"measurement": "effect on AngII-evoked single channel conductances [2] and [3] / single channel activity", "setting": "[2]", "result": "abolished; also recorded: suppressed"}]}
{"molecule": "Angiotensin II (DRVYIHPF; Angiotensin-2; UniProt P01019 25-32, looked up) [AngII]", "values": [{"measurement": "normalized peak current", "setting": "AT1R podocytes [3]; at +100 mV", "result": "20±7", "unit": "pA/pF"}, {"measurement": "normalized peak current", "setting": "AT1R podocytes [3]; at -100 mV", "result": "10±4", "unit": "pA/pF"}]}
{"molecule": "CCCCc1nc(Cl)c(CO)n1Cc1ccc(-c2ccccc2-c2nn[nH]n2)cc1", "note": "[Losartan]", "values": [{"measurement": "decrease of the amplitude of the AngII-evoked Ca2+ transient", "setting": "AT1R podocytes [4]", "result": "more than 70%"}, {"measurement": "stress fibers", "setting": "podocytes; cells pre-treated with Losartan, Scr shRNA controls 16±1", "result": "25±1"}, {"measurement": "stress fiber formation", "setting": "AT1R podocytes [5]; Losartan 200 nM prior to AngII exposure", "result": "induced robust stress fiber formation"}, {"measurement": "focal adhesions (Paxillin immunostaining)", "setting": "AT1R podocytes [5]; Losartan-treated vs AngII-treated controls", "result": "increase in focal adhesions"}]}
